From patent US8501215B2, “Injectable multimodal polymer depot compositions and uses thereof” (priority 2002, dated 2013)
Counter-ions that a name gives are not always drawn.

Tests used:
[1] = Saturation concentration of bupivacaine hydrochloride in de-ionized water; format: physicochemical
Experimental: Bupivacaine hydrochloride (Sigma-Aldrich Corporation, St. Louis, Mo.) was dissolved in de-ionized (DI) water at a concentration of 40 mg/ml (saturation). A calculated amount of sodium hydroxide (in the form of 1 N solution) was added to the solution and the pH of the final mixtures was adjusted to ten to precipitate the Bupivacaine base. The precipitated product was filtered, and further washed with DI water for at least three times. The precipitated product was dried at ca. 40° C. in vacuum for 24 hours.

[2] = cited from earlier work

concentration in de-ionized (DI) water (saturation) [1] [µg/mL]	Compound	reported solubility in water [2]
40000	CCCCN1CCCCC1C(=O)Nc1c(C)cccc1C (centres unmarked) [Bupivacaine hydrochloride]	–
–	CC(=O)OCC(COC(C)=O)OC(C)=O [triacetin]	7.17 grams in 100 ml of water
